In experiment [1] the test system is 5AG4-FAM (DNA, G4) AAAAAGGGTGGGTGGGTGGGTTTTT
As to the kind of experiment: FAM fluorescence quenching on hemin addition. Particulars: K+ (varied); 10 mM Tris-HCl pH 8.4; K+-folded parallel G4.

Experiment [2] has as its system 5AG4 (DNA, G4) AAAAAGGGTGGGTGGGTGGGTTTTT
As to the kind of experiment: SGI fluorescence quenching on hemin addition. Particulars: K+ (varied); 10 mM Tris-HCl pH 8.4, 0.2% Tween 20, 0.3x SGI; K+-folded parallel G4.

The test system of experiment [3] is OTAapt31 (DNA, aptamer) GATCGGGTGTGGGTGGCGTAAAGGGAGCATC
As to the kind of experiment: SGI fluorescence quenching. The following applies: 6.25 mM Ca2+; 10 mM Tris-HCl pH 8.4, 0.3x SGI, 20 nM aptamer; tested at 62.5 nM.

Experiment [4] has the same test system. The experiment in a line: SGI fluorescence enhancement. The following applies: 6.25 mM Ca2+; 10 mM Tris-HCl pH 8.4, 0.3x SGI, 20 nM aptamer; no OTA; terminal duplex stem.
For experiment [5] the test system is unchanged. As to the kind of experiment: SGI fluorescence quenching on CV addition. Particulars: 6.25 mM Ca2+; 10 mM Tris-HCl pH 8.4, 0.3x SGI; OTA-folded antiparallel G4.
For experiment [6], the system named is OTAapt31-FAM (DNA, aptamer) GATCGGGTGTGGGTGGCGTAAAGGGAGCATC
The experiment in a line: FAM fluorescence quenching on CV addition. The following applies: 6.25 mM Ca2+; 10 mM Tris-HCl pH 8.4; OTA-folded antiparallel G4.

The subject of experiment [7] is OTAapt36 (DNA, aptamer) GATCGGGTGTGGGTGGCGTAAAGGGAGCATCGGACA
The experiment in a line: fluorescence quenching titration. The following applies: 6.25 mM Ca2+; 10 mM Tris-HCl pH 8.4, 0.2% Tween 20, 0.3x SGI, 20 nM aptamer, room temperature; apparent.

The subject of experiment [8] is G31C (DNA, aptamer) GGATCGGGTGTGGGTGGCGTAAAGGGAGCATCC
As to the kind of experiment: fluorescence quenching titration. Particulars: 6.25 mM Ca2+; 10 mM Tris-HCl pH 8.4, 0.2% Tween 20, 0.3x SGI, 20 nM aptamer, room temperature; apparent.

For experiment [9], the system named is OTAapt31 (DNA, aptamer) GATCGGGTGTGGGTGGCGTAAAGGGAGCATC
As to the kind of experiment: fluorescence quenching titration. The following applies: 6.25 mM Ca2+; 10 mM Tris-HCl pH 8.4, 0.2% Tween 20, 0.3x SGI, 20 nM aptamer, room temperature; apparent.

For experiment [10], the system named is OTAapt31-FAM (DNA, aptamer) GATCGGGTGTGGGTGGCGTAAAGGGAGCATC
The experiment in a line: FAM fluorescence quenching titration. The following applies: 6.25 mM Ca2+; 10 mM Tris-HCl pH 8.4, room temperature; apparent.

`C=CC1=C(C)C2=Cc3c(C=C)c(C)c4[n]3[Fe]([Cl])[n]3c(c(C)c(CCC(=O)O)c3=CC3=NC(=C4)C(C)=C3CCC(=O)O)=CC1=N2`: the binding result in experiment [1] and in experiment [2] was “yes” each time.

Regarding `CCCC[C@@H](C)[C@@H](OC(=O)C[C@@H](CC(=O)O)C(=O)O)[C@H](C[C@@H](C)C[C@H](O)CCCC[C@@H](O)C[C@H](O)[C@H](C)N)OC(=O)C[C@@H](CC(=O)O)C(=O)O`, in experiment [3], the binding entry is “no”.

For the molecule `CCCN(CCCN(C)C)c1cc(C=C2Sc3ccccc3N2C)c2ccccc2[n+]1-c1ccccc1`, the binding entry in experiment [4] is given as “yes”. As to `CN(C)c1ccc(C(=C2C=CC(=[N+](C)C)C=C2)c2ccc(N(C)C)cc2)cc1`, the binding entry in [5] and in [6] was “yes” each time. By IC50 is commonly meant the concentration that inhibits the measured activity by half. As to `C[C@@H]1Cc2c(Cl)cc(C(=O)N[C@@H](Cc3ccccc3)C(=O)O)c(O)c2C(=O)O1`, the IC50 stood at 55.7 nM in [7], 17.8 nM in [8], 20.6 nM in [9] and 19.8 nM in experiment [10]. Consider `C[C@@H]1Cc2ccc(C(=O)N[C@@H](Cc3ccccc3)C(=O)O)c(O)c2C(=O)O1`, for which the binding entry in [3] is given as “no”. Still for that read-out and setting: as for `C[C@H]1CCCC(=O)CCC/C=C/c2cc(O)cc(O)c2C(=O)O1`, the entry is “no”; as for `O=C1C=C2C(=CCOC2O)O1` (stereo not shown), “no”.

Source of the values: PMC9221108 (2022).
